# Data as given in patent US20230108125A1, “SMALL MOLECULE COMPOUNDS” (Apertor Pharmaceuticals, Inc., priority 2021, published 2023).
# System: Saccharomyces cerevisiae BY4742
# Experiment: Anti-yeast activity assay (minimum inhibitory concentration)
# Assay type: cell-based
# Conditions: YPD media, 30° C., 16 hours, lowest concentration with no obvious culture growth, triplicate, read-out: MIC against Saccharomyces cerevisiae BY4742
# Procedure: A single colony of Saccharomyces cerevisiae BY4742 was inoculated into 2 mL YPD media in a 5 mL falcon tube to grow overnight at 30° C. The overnight culture was inoculated into 5 mL YPD media in a glass tube at OD600=0.1, and the new culture was grown at 30° C. until OD600 reached 0.5. The culture was then diluted to OD600=0.01 and aliquoted into 96-well plates at 100 μL per well. The compound was dissolved in ethanol at 75 μM. Three-fold serial dilutions were conducted for the Compound 10 times using ethanol, respectively. 4 μL of each concentration compound solution was added and mixed with 384 μL YPD media. 100 μL of the YPD media solutions were mixed with the Saccharomyces cerevisiae cultures in 96-well plates by pipette, respectively. The plates were incubated at 30° C. for 16 hours without shaking. The lowest Compound concentrations in wells that have no obvious culture growth were defined as the minimum inhibitory concentrations (MICs). The assays were conducted in triplicate.
row,MIC [µM],Structure (SMILES)
1,< 0.0556,"CO[C@@H]1/C(C)=C/C=C/C=C/[C@@H](C)C[C@@H](C)C(=O)[C@H](OC)[C@H](O)/C(C)=C/[C@@H](C)C(=O)C[C@@H]([C@H](C)C[C@@H]2CC[C@@H](O)[C@H](OC)C2)OC(=O)[C@@H]2CCCCN2C(=O)C(=O)[C@]2(O)O[C@@H](CC[C@H]2C)[C@@H]1C [Compound 15, (3S,6R,7E,9R,10R,12R,14S,15E,17E,19E,21S,22S,23S,26R,27R,34aS)-9,27-dihydroxy-3-((R)-1-((1S,3R,4R)-4-hydroxy-3-methoxycyclohexyl)propan-2-yl)-10,21-dimethoxy-6,8,12,14,20,22,26-heptamethyl-9,10,12,13,14,21,22,23,24,25,26,27,32,33,34,34a-hexadecahydro-3H-23,27-epoxypyrido[2,1-c][1]oxa[4]azacyclohentriacontine-1,5,11,28,29(4H,6H,31H)-pentaone]"
2,< 0.0556,"CO[C@H]1C[C@@H]2CCC[C@@](O)(O2)C(=O)C(=O)N2CCCC[C@H]2C(=O)O[C@H]([C@H](C)C[C@@H]2CC[C@@H](O)[C@H](OC)C2)CC(=O)[C@H](C)/C=C(\C)[C@@H](O)[C@@H](OC)C(=O)[C@H](C)C[C@H](C)/C=C/C=C/C=C/1C [Compound 12, (3S,6R,7E,9R,10R,12R,14S,15E,17E,19E,21S,23S,27R,34aS)-9,27-dihydroxy-3-((R)-1-((1S,3R,4R)-4-hydroxy-3-methoxycyclohexyl)propan-2-yl)-10,21-dimethoxy-6,8,12,14,20-pentamethyl-9,10,12,13,14,21,22,23,24,25,26,27,32,33,34,34a-hexadecahydro-3H-23,27-epoxypyrido[2,1-c][1]oxa[4]azacyclohentriacontine-1,5,11,28,29(4H,6H,31H)-pentaone]"
3,< 0.0556,"CO[C@H]1C[C@@H]2CC[C@@H](C)[C@@](O)(O2)C(=O)C(=O)N2CCCC[C@H]2C(=O)O[C@H]([C@H](C)C[C@@H]2CC[C@@H](O)[C@H](OC)C2)CC(=O)C/C=C(\C)[C@@H](O)[C@@H](OC)C(=O)[C@H](C)C[C@H](C)/C=C/C=C/C=C/1C [Compound 10, (3S,7E,9R,10R,12R,14S,15E,17E,19E,21S,23S,26R,27R,34aS)-9,27-dihydroxy-3-((R)-1-((1S,3R,4R)-4-hydroxy-3-methoxycyclohexyl)propan-2-yl)-10,21-dimethoxy-8,12,14,20,26-pentamethyl-9,10,12,13,14,21,22,23,24,25,26,27,32,33,34,34a-hexadecahydro-3H-23,27-epoxypyrido[2,1-c][1]oxa[4]azacyclohentriacontine-1,5,11,28,29(4H,6H,31H)-pentaone]"
